Reference: patent US20190216923A1, “METHODS AND COMBINATION THERAPY TO TREAT CANCER” (Array BioPharma Inc., priority 2018, published 2019)

Legend:
[1] = system: melanoma cell lines; assay: Cell surface MHC class I expression, summary over the melanoma cell line panel; format: cell-based, human
Description: The goal of this study was to measure the effects of binimetinib on cell surface MHC class I expression in various melanoma cell lines. In this study, eight melanoma cell lines were evaluated: MEL-JUSO (NRAS Q61L mutation), IPC-298 (NRAS Q61L mutation), A375 (BRAF V600E, homozygous mutation), HS936.T (NRAS Q61K mutation and BRAF N581K mutation), MM485 (NRAS Q61R mutation), SK-MEL-2 (NRAS Q61R mutation), MM415 (NRAS Q61L mutation), Malme-3M (BRAF V600E, heterozygous mutation). The cells lines were seeded into flat bottom 96-well tissue culture plates at a density of 5000 cells per well and allowed to adhere overnight. The following day cells were treated with vehicle control (0.25% DMSO) or varying dilutions of Binimetinib (0.7 nM-25000 nM) for 1 hour. Cells were then treated with vehicle control or 100 ng/ml IFNgamma (R&D systems) for 72 hours. Cells were washed, trypsinized, and stained with Alexa Fluor® 647 anti-human HLA-A,B,C antibody (W6/32, eBioscience) and analyzed on a BD FACSCanto II flow cytometer. An IFNg titration and time course were performed for assay optimization. Maximal induction of MHC class I expression was seen 100 ng/mL of IFNγ (see, e.g., FIGS. 1 and 2).

[2] = Binimetinib steady state exposure quoted in figure legends; format: in vivo
[3] = system: KRas mutant CT26 murine colon syngeneic tumors; assay: CT26 syngeneic tumor growth, survival and tolerability; format: in vivo; details: table
Description: 1% CMC/0.5% Tween-80 (CMCT) was prepared by adding 960 mL of distilled water to a 1000 mL Pyrex® glass bottle with a stir bar in the bottom, and was used as the oral vehicle. […] Carboxymethylcellulose (5 g, CMC, low viscosity, Sigma C5678, Batch #033K0008) was added slowly, over one hour. The solution was stirred until the CMC dissolved and the solution was clear. 30 mg/kg MEK162 (Binimetinib, 100% active) was prepared as a white, homogeneous suspension in CMCT. MEK162 was administered in 10 mL/kg and dosed at 30 mg/kg (3.0 mg/mL) by oral gavage. To prepare, dry test compound (90 mg) was weighed and 30 mL CMCT added. Dose suspension was sonicated until a fine suspension was achieved (˜15 min). Final dose suspension was stored at 4° C. during live phase and sonicated to resuspend prior to dose administration. Dose suspension was prepared every 4-5 days or as needed. […]
Animals were monitored for tumor growth and body weight 2-3 times per week based on outgrowth kinetics. Tumor diameter was measured with digital calipers, and the tumor volume in mm^3 was calculated by the formula: Volume=((width)^2×length)/2. TGI was calculated on day 15. […]
Survival defined as morbidity, mortality or tumor size exceeding 1400 mm3. […] Cures: Animals with no palpable tumor at the end of the study were scored as cures. […]

[4] = system: CT26 tumors; assay: T-cell fraction and clonality by immune sequencing (mmTCRB assay); format: in vivo, mouse; details: 5/10 tumors per group, FIG. 15
Description: Animals were monitored for tumor growth and body weight 2-3 times per week based on outgrowth kinetics. Tumor diameter was measured with digital calipers, and the tumor volume in mm^3 was calculated by the formula: Volume=((width)^2×length)/2. TGI was calculated on day 15. Animals were removed from study if found moribund or if tumor volume exceeded 1400 mm^3. At that time, tumor tissue was harvested and frozen for later analysis of T-cell clonality by immune sequencing (Adaptive Biotech, San Diego, Calif.). Food, water, temperature and humidity were according to Pharmacology Testing Facility performance standards (SOP's) which are in accordance with the 1996 Guide for the Care and Use of Laboratory Animals (NRC) and AAALAC-International.
The mechanism of combination activity was investigated by analyzing T-cell fraction and clonality by immune sequencing in 5/10 tumors from each group (FIG. 15). To determine the effect of binimetinib on the T cell repertoire of CT26 tumors, analysis was performed of mouse T-cell diversity, clonality and abundance as potential biomarkers by survey level sequencing of mouse tumor samples using the mmTCRB assay. Clonality was determined by quantitating the extent of mono- or oligoclonal expansion by measuring the shape of the clone frequency distribution. […]

Cn1cnc2c(F)c(Nc3ccc(Br)cc3F)c(C(=O)NOCCO)cc21 [Binimetinib, 6-(4-bromo-2-fluorophenylamino)-7-fluoro-3-methyl-3H-benzoimidazole-5-carboxylic acid (2-hydroxyethoxy)-amide]
increase of IFNg-induced MHC class I ([1]; all tested cell lines, +IFNg): 1.5-4 fold
increase in MHC class I cell surface expression ([1]; in the 6 of 8 melanoma cell lines that responded, no IFNg): 1.5-3 fold
Steady state Cmax, free fraction ([2]; free fraction): 26 nM
Trough (day 15), free fraction ([2]; free fraction, day 15): 8.1 nM
Cmax ([2]; in vivo, total): 1000 nM
Median Survival [3]: 26
T-cell clonality [4]: trend for decreased
T-cell fraction [4]: trend for decreased
